What was measured:
[1] = Half lives of various silanes in 0.1M aqueous phosphate buffers at pH 7 and 25°; format: physicochemical; conditions: 0.1M aqueous phosphate buffer, pH 7, 25°
Experimental: Half lives of various silanes in 0.1M aqueous
phosphate buffers at pH 7 and 25°.

[2] = system: Hevea brasiliensis trees (Clone Tjirandji 1); experiment: Yield of dried rubber from trees treated on scraped bark below the tapping cut; format: in vivo; conditions: 20% w/w in palm oil, alternate-day half-spiral tapping, mean over two weeks
Experimental: A solution of 20% w/w of diphenyl 2-(trimethylsilyl)ethylphosphate in palm oil was applied to 11/2 inch wide strip of scraped bark just below the tapping cut of Hevea brasiliensis trees (Clone Tjirandji 1). The trees were tapped on alternate days using a half-spiral tapping cut. The yield of dried rubber obtained over a four-week period was measured. The mean yields over two weeks, expressed as grams of dry rubber per tree per tapping was 45.5 (194% of control).

[3] = system: Hevea brasiliensis seedlings; experiment: Average rubber yield of seedlings treated with silane, neat liquid or 12% solution in petroleum jelly; format: in vivo
Experimental: Three Hevea brasiliensis seedlings were treated with 2-chloroethyltrimethoxysilane (2 μ1) applied as a neat liquid. Three similar seedlings were treated with the same weight of compound applied as a 12% solution in petroleum jelly. The following average yields of rubber were obtained (yield in mg of dry rubber, expressed as a percentage of pretreatment yields in parentheses).

[4] = 12% solution in petroleum jelly, 3 days after treatment
[5] = 12% solution in petroleum jelly, 7 days after treatment
[6] = 12% solution in petroleum jelly, 12 days after treatment
[7] = 12% solution in petroleum jelly, 16 days after treatment
[8] = 12% solution in petroleum jelly, 24 days after treatment
[9] = 12% solution in petroleum jelly, 30 days after treatment
[10] = 12% solution in petroleum jelly, 34 days after treatment
[11] = 12% solution in petroleum jelly, 42 days after treatment
[12] = neat liquid (2 μl), 3 days after treatment
[13] = neat liquid (2 μl), 7 days after treatment
[14] = neat liquid (2 μl), 12 days after treatment
[15] = neat liquid (2 μl), 16 days after treatment
[16] = neat liquid (2 μl), 24 days after treatment
[17] = neat liquid (2 μl), 30 days after treatment
[18] = neat liquid (2 μl), 34 days after treatment
[19] = neat liquid (2 μl), 42 days after treatment

Compound CC[S+](C)CC[Si](OC)(OC)OC.[I-] (centres unmarked) [ethyl methyl 2-(trimethoxysilyl)-ethyl sulphonium iodide] has a half-life [1] of 14 h.

CC(C)O[Si](CCCl)(OC(C)C)OC(C)C [2-chloroethyltriisopropoxysilane] showed a half-life [1] of 504 h.

For C[Si](C)(C)CCOP(=O)(Oc1ccccc1)Oc1ccccc1 [diphenyl 2-(trimethylsilyl)-ethyl phosphate], the “mean yield of dry rubber per tree per tapping” value [2] was 45.5 grams of dry rubber per tree per tapping and the “mean yield relative to control” value [2] was 194 % of control.

In the case of C[Si](C)(C)CCCl [2-chloroethyltrimethylsilane], the half-life [1] is reported as < 0.0167 h.

With CO[Si](CCCl)(OC)OC [2-chloroethyltrimethoxysilane] the half-life [1] was 0.333 h, the “average yield of dry rubber” value [3, 4] was 2.2 mg and the “yield as a percentage of pretreatment yields” value (from here on “yield as a percentage”) [3, 4] was 160%. For the same compound, the “average yield of dry rubber” value [3, 5] was 2.3 mg, the “yield as a percentage” value [3, 5] was 164% and the “average yield of dry rubber” value [3, 6] was 2.3 mg. The “yield as a percentage” value [3, 6] was 164%, the “average yield of dry rubber” value [3, 7] was 3.0 mg and the “yield as a percentage” value [3, 7] was 215%. For the same compound, the “average yield of dry rubber” value [3, 8] was 2.2 mg, the “yield as a percentage” value [3, 8] was 160% and the “average yield of dry rubber” value [3, 9] was 2.3 mg. The “yield as a percentage” value [3, 9] was 164%, the “average yield of dry rubber” value [3, 10] was 1.8 mg and the “yield as a percentage” value [3, 10] was 128%. For the same compound, the “average yield of dry rubber” value [3, 11] was 0.9 mg, the “yield as a percentage” value [3, 11] was 65% and the “average yield of dry rubber” value [3, 12] was 2.1 mg. The “yield as a percentage” value [3, 12] was 230%, the “average yield of dry rubber” value [3, 13] was 2.2 mg and the “yield as a percentage” value [3, 13] was 245%. The “average yield of dry rubber” value [3, 14] was 1.3 mg, the “yield as a percentage” value [3, 14] was 145% and the “average yield of dry rubber” value [3, 15] was 1.1 mg. For the same compound, the “yield as a percentage” value [3, 15] was 122%, the “average yield of dry rubber” value [3, 16] was 0.9 mg and the “yield as a percentage” value [3, 16] was 100%. For the same compound, the “average yield of dry rubber” value [3, 17] was 0.8 mg, the “yield as a percentage” value [3, 17] was 90% and the “average yield of dry rubber” value [3, 18] was 1.2 mg. The “yield as a percentage” value [3, 18] was 134%, the “average yield of dry rubber” value [3, 19] was 1.0 mg and the “yield as a percentage” value [3, 19] was 112%.

Source: patent publication US4084951A, “Silicon compounds containing nucleofugal phosphate group and method of regulating plant growth therewith” (priority 1971, dated 1978)
